In PMC3701632, “Kinetic Features of L,D-Transpeptidase Inactivation Critical for β-Lactam Antibacterial Activity” (PLoS ONE, 2013):

How the values were obtained:
[1] = target: T1, Ldtfm catalytic domain (LdtfmC442A) (Enterococcus faecium, UniProt Q3Y185, C442A); experiment: biochemical
T1 construct: gene HMPREF0351_12555

[2] = tested on: CO/N=C(\C(=O)N[C@@H]1C(=O)N2C(C(=O)O)=C(CSc3nc(=O)c(=O)[nH]n3C)CS[C@H]12)c1csc(N)n1; experiment: purified protein; assay type: biochemical, Enterococcus faecium; details: covalent acylenzyme turnover, saturable step assigned to oxyanion formation, 5 µM enzyme, 100 mM sodium phosphate pH 6.0, 20°C
[3] = tested on: CC1(C)S[C@@H]2[C@H](NC(=O)[C@H](N)c3ccccc3)C(=O)N2[C@H]1C(=O)O; experiment: purified protein; assay type: biochemical, Enterococcus faecium; details: covalent acylenzyme turnover, saturable step assigned to oxyanion formation, 5 µM enzyme, 100 mM sodium phosphate pH 6.0, 20°C

T1 sequence (Q3Y185 341-466 C442A): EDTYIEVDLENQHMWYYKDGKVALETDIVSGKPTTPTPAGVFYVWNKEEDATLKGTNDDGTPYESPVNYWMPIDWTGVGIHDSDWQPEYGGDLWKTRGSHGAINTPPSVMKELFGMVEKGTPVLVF

| Molecule | Kd [1] [mM] | kcat [2] [s⁻¹] | K0.5 [3] [µM] | kcat [3] [s⁻¹] |
| --- | --- | --- | --- | --- |
| CC1(C)S[C@@H]2[C@H](NC(=O)[C@H](N)c3ccccc3)C(=O)N2[C@H]1C(=O)O [ampicillin] | 79 |  |  |  |
| CO/N=C(\C(=O)N[C@@H]1C(=O)N2C(C(=O)O)=C(CSc3nc(=O)c(=O)[nH]n3C)CS[C@H]12)c1csc(N)n1 [ceftriaxone] | 44 |  |  |  |
| C[C@@H](O)[C@H]1C(=O)N2C(C(=O)O)=C(S[C@@H]3CN[C@H](C(=O)Nc4cccc(C(=O)O)c4)C3)[C@H](C)[C@H]12 [ertapenem] | 50 |  |  |  |
| Ldtfm (Enterococcus faecium DO) |  | 0.00045 ± 5e-05 | 370 ± 30 | 0.003 ± 0.00017 |
